Laboratory results reported in PubChem BioAssay AID2060486 (Molecular Pharmacology Branch, DTP, NCI, 2025).

Tested on: IGROV1 complex spheroids (HUVEC, MSC), viability % test/control
Assay: Anticancer human tumor IGROV1 cell line growth inhibition [GQUAD];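 also: spheroids exposed to compounds for 7 days before readout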
Details: for IC50: curve of first compound; for viability, T/C: stronger effect = lower value
Source text: DNA G-quadruplex Stabilizer Agents in Combinations in Complex Spheroids
A high-throughput screen of multi-cell type tumor spheroids was designed to identify active combinations of DNA G-quadruplex stabilizer agents and targeted small molecules. Complex spheroids include a stromal component modeled by human endothelial cells (HUVEC) and fibroblasts modeled by human mesenchymal stem cells (MSCs). The concentration ranges selected for each drug and investigational agent were based upon clinically achievable concentrations if the clinical Cmax of the agent was known.
Compounds. The drugs and investigational agents: pidnarulex (CX-5461; NSC782164), APTO-253 (NSC789042), BRACO-19 (NSC847499), peposertib (NSC802822), ceralasertib (NSC780249), elimusertib (NSC800525), camonsertib (NSC841442), AZD-1390 (NSC803789), olaparib (NSC753686), talazoparib (NSC767125), ART-558 (NSC835418), sotorasib (NSC818433), MRTX-1133 (NSC836407), SN-38 (NSC673596), topotecan (NSC609699), etoposide (NSC141540), doxorubicin (NSC123127), gemcitabine (NSC613327), 5-fluorouracil (NSC19893), paclitaxel (NSC125973), vemurafenib (NSC761431), panobinostat (NSC761190), R-306465 (JNJ-16241199; NSC773264), adavosertib (NSC754352), TP-3654 (NSC805149), carboplatin (NSC241240), KSQ-4279 (NSC840948), and staurosporine (NSC755774) were obtained from the National Cancer Institute (NCI) Developmental Therapeutics Program Chemical Repository (34). The FDA-approved anticancer drug set is available from the NCI Developmental Therapeutics Program. […] The stock solutions were prepared in dimethyl sulfoxide (DMSO, Sigma-Aldrich, St. Louis, MO, cat. D2650) at 800-fold the tested concentration and stored at -70 degrees C prior to their use. All drugs and investigational agents were tested over a range starting from a high concentration at or near the clinical Cmax and decreasing in half-log increments. If the clinical Cmax for an agent had not been determined, the highest concentration tested was 10 microM.
2.3 Cell Culture. All cells were maintained in an incubator at 37 degrees C and 5% CO2 with 95% humidity. The PDC lines were cultured according to standard operating procedures established by the NCI PDMR. All PDCs were thawed and cultured in Matrigel-coated flasks prepared with a working solution of 1X Ham's F-12 nutrient mix, without supplementation (Invitrogen, cat. 11765054), 100 U/mL penicillin-streptomycin (Invitrogen, cat. 15140122), and 2.5% Matrigel (Corning Inc., cat. 354248) for the first three passages. The 857933-349-R-J2-PDC line was cultured in 6C/Colon 1B media, which includes advanced DMEM/F-12 (Thermo Fisher Scientific, cat. 12634028), 10 mM HEPES (Thermo Fisher Scientific, cat. 15630080), 1X GlutaMAX supplement (Thermo Fisher Scientific, cat. 35050061), 0.1 mg/mL primocin (InvivoGen, cat. ant-pm-2), 10% defined fetal bovine serum, heat inactivated (HyClone Laboratories Inc., cat. SH30070.03HI), 50% L-WRN conditioned media (ATCC, cat. CRL-3276), 1.25 mM N-Acetyl-L-cysteine (Sigma-Aldrich, cat. A9165), 10 mM nicotinamide (Sigma-Aldrich, cat. N0636), 1X B-27 supplement (Thermo Fisher Scientific, cat. 17504044), 1X N-2 supplement (Thermo Fisher Scientific, cat. 17502048), 10 microM Y-27632 dihydrochloride (Tocris Bioscience, cat. 1254), and 50 ng/mL human EGF recombinant protein (Thermo Fisher Scientific, cat. PHG0311). The 485176-168-R4-J1-PDC line was cultured in Panc media, which includes all 6C/Colon 1B media components plus 100 ng/mL human FGF-10 (Thermo Fisher Scientific, cat. 100-26), 500 nM SB-431542 (Selleckchem, cat. S1067), and gastrin (Tocris, cat. 3006).
[…]

[1] = second compound 0.0316 µM, first compound 0.0316 µM
[2] = second compound 0.0316 µM, first compound 0.316 µM
[3] = second compound 0.1 µM, first compound 0.0316 µM
[4] = second compound 0.1 µM, first compound 0.316 µM
[5] = second compound 0.316 µM, first compound 0.0316 µM
[6] = second compound 0.316 µM, first compound 0.316 µM
[7] = second compound 1 µM, first compound 0.0316 µM
[8] = second compound 1 µM, first compound 0.316 µM
[9] = second compound 3.16 µM, first compound 0.0316 µM
[10] = second compound 3.16 µM, first compound 0.316 µM
[11] = second compound 10 µM, first compound 0.0316 µM
[12] = second compound 10 µM, first compound 0.316 µM

For `CCc1c2c(nc3ccc(O)cc13)-c1cc3c(c(=O)n1C2)COC(=O)[C@]3(O)CC` + CN(C)c1ccc(Nc2c3ccc(NC(=O)CCN4CCCC4)cc3nc3cc(NC(=O)CCN4CCCC4)ccc23)cc1, the IC50 (second compound 0.0316 µM) was 1.22 nM, the IC50 (second compound 0.1 µM) was 1.05 nM and the IC50 (second compound 0.316 µM) was under 0.999 nM. For the same compound, the IC50 (second compound 1 µM) was under 0.999 nM, the IC50 (second compound 3.16 µM) was under 0.999 nM and the IC50 (second compound 10 µM) was under 0.999 nM. For the same compound, the viability, T/C (second compound 0.0316 µM, first compound 0.000999 µM) was 57.5%, the viability, T/C (second compound 0.0316 µM, first compound 0.00316 µM) was 15.8% and the viability, T/C (second compound 0.0316 µM, first compound 0.00999 µM) was 11.4%. The viability, T/C [1] was 7.01%, the viability, T/C (second compound 0.0316 µM, first compound 0.0999 µM) was 5.52% and the viability, T/C [2] was 1.54%. It also gave a viability, T/C (second compound 0.1 µM, first compound 0.000999 µM) of 51.9%, a viability, T/C (second compound 0.1 µM, first compound 0.00316 µM) of 15.3% and a viability, T/C (second compound 0.1 µM, first compound 0.00999 µM) of 11.3%. The viability, T/C [3] was 8.79%, the viability, T/C (second compound 0.1 µM, first compound 0.0999 µM) was 5.38% and the viability, T/C [4] was 1.47%. The viability, T/C (second compound 0.316 µM, first compound 0.000999 µM) was 49.7%, the viability, T/C (second compound 0.316 µM, first compound 0.00316 µM) was 16.7% and the viability, T/C (second compound 0.316 µM, first compound 0.00999 µM) was 9.1%. It also gave a viability, T/C [5] of 8.69%, a viability, T/C (second compound 0.316 µM, first compound 0.0999 µM) of 3.87% and a viability, T/C [6] of 1.5%. For the same compound, the viability, T/C (second compound 1 µM, first compound 0.000999 µM) was 49.5%, the viability, T/C (second compound 1 µM, first compound 0.00316 µM) was 13.7% and the viability, T/C (second compound 1 µM, first compound 0.00999 µM) was 9.93%. The viability, T/C [7] was 8.16%, the viability, T/C (second compound 1 µM, first compound 0.0999 µM) was 5.08% and the viability, T/C [8] was 2.04%. For the same compound, the viability, T/C (second compound 3.16 µM, first compound 0.000999 µM) was 42.3%, the viability, T/C (second compound 3.16 µM, first compound 0.00316 µM) was 11.4% and the viability, T/C (second compound 3.16 µM, first compound 0.00999 µM) was 8.41%. For the same compound, the viability, T/C [9] was 8.25%, the viability, T/C (second compound 3.16 µM, first compound 0.0999 µM) was 5.52% and the viability, T/C [10] was 1.58%. For the same compound, the viability, T/C (second compound 10 µM, first compound 0.000999 µM) was 20.3%, the viability, T/C (second compound 10 µM, first compound 0.00316 µM) was 10.7% and the viability, T/C (second compound 10 µM, first compound 0.00999 µM) was 9.09%. The viability, T/C [11] was 5.5%, the viability, T/C (second compound 10 µM, first compound 0.0999 µM) was 2.71% and the viability, T/C [12] was 2.02%.
With `COc1cc(C2c3cc4c(cc3C(OC3OC5COC(C)OC5C(O)C3O)C3COC(=O)C23)OCO4)cc(OC)c1O` (centres undefined) + CN(C)c1ccc(Nc2c3ccc(NC(=O)CCN4CCCC4)cc3nc3cc(NC(=O)CCN4CCCC4)ccc23)cc1 the IC50 (second compound 0.0316 µM) was 138 nM, the IC50 (second compound 0.1 µM) was 109 nM and the IC50 (second compound 0.316 µM) was 93.5 nM. For the same compound, the IC50 (second compound 1 µM) was 84.1 nM, the IC50 (second compound 3.16 µM) was 98.5 nM and the IC50 (second compound 10 µM) was under 31.6 nM. The viability, T/C [1] was 88.3%, the viability, T/C (second compound 0.0316 µM, first compound 0.1 µM) was 59.8% and the viability, T/C [2] was 25.1%. It also gave a viability, T/C (second compound 0.0316 µM, first compound 1 µM) of 13.8%, a viability, T/C (second compound 0.0316 µM, first compound 3.16 µM) of 9.71% and a viability, T/C (second compound 0.0316 µM, first compound 10 µM) of 6.8%. The viability, T/C [3] was 90.7%, the viability, T/C (second compound 0.1 µM, first compound 0.1 µM) was 51.9% and the viability, T/C [4] was 24.9%. For the same compound, the viability, T/C (second compound 0.1 µM, first compound 1 µM) was 11.9%, the viability, T/C (second compound 0.1 µM, first compound 3.16 µM) was 9.44% and the viability, T/C (second compound 0.1 µM, first compound 10 µM) was 6.65%. The viability, T/C [5] was 88%, the viability, T/C (second compound 0.316 µM, first compound 0.1 µM) was 47.6% and the viability, T/C [6] was 23.2%. For the same compound, the viability, T/C (second compound 0.316 µM, first compound 1 µM) was 11.3%, the viability, T/C (second compound 0.316 µM, first compound 3.16 µM) was 9.49% and the viability, T/C (second compound 0.316 µM, first compound 10 µM) was 5.93%. It also gave a viability, T/C [7] of 83.4%, a viability, T/C (second compound 1 µM, first compound 0.1 µM) of 44.5% and a viability, T/C [8] of 18.1%. The viability, T/C (second compound 1 µM, first compound 1 µM) was 12.9%, the viability, T/C (second compound 1 µM, first compound 3.16 µM) was 9.59% and the viability, T/C (second compound 1 µM, first compound 10 µM) was 5.75%. The viability, T/C [9] was 85.2%, the viability, T/C (second compound 3.16 µM, first compound 0.1 µM) was 49.4% and the viability, T/C [10] was 24.6%. For the same compound, the viability, T/C (second compound 3.16 µM, first compound 1 µM) was 11%, the viability, T/C (second compound 3.16 µM, first compound 3.16 µM) was 9.22% and the viability, T/C (second compound 3.16 µM, first compound 10 µM) was 5.74%. The viability, T/C [11] was 50.3%, the viability, T/C (second compound 10 µM, first compound 0.1 µM) was 22.1% and the viability, T/C [12] was 13.1%. For the same compound, the viability, T/C (second compound 10 µM, first compound 1 µM) was 7.21%, the viability, T/C (second compound 10 µM, first compound 3.16 µM) was 6.58% and the viability, T/C (second compound 10 µM, first compound 10 µM) was 4.87%.
